Assay results: patent US20080047904A1, “Treatment for Hydrostatic Testing Water” (priority 2004, published 2008)

Legend:
[1] = test system: Medinia beryllina larvae; test: 48-hour acute LC50 assay, static renewal; assay type: in vivo
Experimental: (§1) The test concentrations were prepared daily, and used immediately for test initiation and renewal. The total residual chlorine was measured in the highest concentration tested for each sample. The measured chlorine concentrations were used to calculate the estimated chlorine concentrations at the lower sample dilutions in these tests. Both range finder and definitive assays were conducted.
(§2) A second set of experiments were conducted to mimic aged treated seawater. This attempted to model water that had been held in a pipeline for 24 hours, and then discharged. The experiments were identical to those described in the preceding paragraph, except that the highest test concentrations were prepared 24 hours before exposure to the test organisms. These same solutions were then used to prepare the 24 hour static renewal concentrations. The residual chlorine concentrations were measured when the test organisms were initially exposed to the toxic insult. These measurement were used to calculate the estimated chlorine concentrations at the lower sample dilutions in these tests, and after the static renewal at 24 hours.

[2] = test system: Mysidopsis bahia juveniles; test: 48-hour acute LC50 assay, static renewal; assay type: in vivo
Experimental: as §1, §2

[3] = Reversion of phosphonate to orthophosphate by oxidizing biocides; assay type: physicochemical; details: 10 ppm oxidant (as Cl2) dosed, pH 9.1, 23° C.
Experimental: The biocides studied consisted of WELLGUARD® 7030, bleach (NaOCl), and activated sodium bromide (NaOCl and NaBr). The WELLGUARD® 7030 and bleach were added directly. Activated sodium bromide was prepared in situ by introducing 20 ppm bromide ion to the stock solution followed by addition of bleach. The phosphonates used in this work consisted of AMP (aminomethylene phosphonic acid), HEDP (hydroxyethylidene diphosphonic acid), and PBTC (phosphonobutanetricarboxylic acid). These materials were commercial samples (Mayoquest 1320, 1500, and 2100, respectively) obtained from Callaway Chemical Co. (Smyrna, Ga.).
Solutions consisting of 5 ppm scale inhibitor (as active phosphonate) in the presence of 10 ppm oxidant (as Cl2) were prepared as follows. To 900 mL deionized water were added appropriate stock solutions containing phosphonate, alkalinity (NaHCO3), and calcium hardness (CaCl2). The pH was adjusted to 9.1 with 5% aq. NaOH and diluted up to 1 L in a dark amber bottle. A dose of oxidant was added to achieve a residual of 10 ppm. The solutions were then periodically monitored for phosphonate reversion by determining the reversion to orthophosphate (Hach method 490). The oxidant residual was also periodically monitored using the DPD method (Hach method 80). All of this work was performed at room temperature (23° C.). […]

[4] = aged: highest test concentrations prepared 24 hours before exposure
[5] = fresh test solutions, static renewal at 24 hours

[Na+].[O-]Cl [Bleach, NaOCl]
48-hour acute LC50 [1, 4]: 0.50 ppm as Cl2
48-hour acute LC50 [1, 5]: 0.57 ppm as Cl2
48-hour acute LC50 [2, 4]: 0.42 ppm as Cl2
48-hour acute LC50 [2, 5]: 0.34 ppm as Cl2
Cl2 (oxidant residual) ([3]; 5 ppm AMP, 460 minutes): 9.4 ppm
Cl2 (oxidant residual) ([3]; 5 ppm HEDP, 400 minutes): 10.6 ppm
